Assay results published in ChEMBL document CHEMBL3507680, “University of Dundee, Gates Library screen for HepG2 cell viability”.

assay: Human HepG2 cell viability assay in 384 well format; type: toxicity, cell-based; design: dose 125 nL, time 70.5 hour; cytotoxicity at 70.5 h: concentration not given beside the values; details: HepG2 cells, read-out: Inhibition

Compared with `COc1c(C2CCCN2C(=O)c2sccc2C#N)c(C)nn1C` (stereo unspecified), `Cc1nn(C)c(C)c1C1CCCN1CC(=O)Nc1nccs1` (stereo unspecified) is higher in cytotoxicity at 70.5 h: -5.44% for the first, -0.764% for the second.

First: CCCn1cc(C(=O)N2CCCC(Cc3nccs3)C2)cn1 (stereo unspecified)
Second: CN(Cc1cc2n(n1)CCN(C(=O)c1cccnc1)C2)Cc1nccs1
The cytotoxicity at 70.5 h of the first is higher: -4.77% for the first, -12% for the second.

Going from `CCO[C@@H]1CO[C@@]2(CCCN(C(=O)c3ccc(OC)c(F)c3)C2)C1` to `CCOc1ccnc(N2CCN(C(=O)c3ccn(C)c(=O)c3)CC2)n1`, the cytotoxicity at 70.5 h falls from 9.35% to -1.73%.

First: CCOCCCNC(=O)Nc1ccc(F)c(C(N)=O)c1
Second: CN(C)C(=O)C1CCCN1CCCNC(=O)c1cccc2[nH]ncc12 (stereo unspecified)
The cytotoxicity at 70.5 h of the first is lower: 6.9% for the first, 12.2% for the second.

First: O=C(c1ccc[nH]1)N1CCC2(CCCN2Cc2cccnc2)CC1
Second: O=C(CC1CCCCC1)N1C[C@H]2CC[C@@H]1CN(Cc1cccnc1)C2
The cytotoxicity at 70.5 h of the first is higher: 0.719% for the first, -13.3% for the second.

Compared with `Cc1ccc(C(=O)N(C)Cc2cc(Br)cs2)c(=O)[nH]1`, `CN(Cc1cc(C2CC2)[nH]n1)C(=O)c1ccccc1C1CCNC1` (stereo unspecified) is higher in cytotoxicity at 70.5 h: -11.5% for the first, -3.91% for the second.

Going from `O=C1NCCN2CCN(C(=O)Nc3ccc(-c4ccccc4)cc3)CC12` (stereo unspecified) to `O=C(Nc1ccc(F)cc1)N1CCN(Cc2noc(C3CC3)n2)CC1`, the cytotoxicity at 70.5 h falls from 10.4% to 1.53%.

First: CC(=O)N1CCCC(c2nc(N(C)C)ncc2-c2ccccc2)C1 (stereo unspecified)
Second: Cc1ccccc1N1CCN(C(=O)c2cnc(N(C)C)nc2C)C(C)C1 (stereo unspecified)
The cytotoxicity at 70.5 h of the first is higher: 3.58% for the first, -7.48% for the second.

Compared with `Cc1noc(COCC(=O)Nc2ncccc2Br)n1`, `Cc1nc(C)c(C)c(NCc2cnn3cccnc23)n1` is higher in cytotoxicity at 70.5 h: 2.34% for the first, 3.17% for the second.

First: Fc1cccc(C2(CNC3CCSC3)CCOCC2)c1 (stereo unspecified)
Second: O=C(NC1CCN(Cc2cccc3c2OCCO3)CC1)c1cccs1
The cytotoxicity at 70.5 h of the first is higher: 13.3% for the first, 0.406% for the second.

First: OCCN(Cc1cccnc1)c1cnc2ccccc2n1
Second: Cc1ccnc(C2CCN(CCCOc3ccccc3F)C2)n1 (stereo unspecified)
The cytotoxicity at 70.5 h of the first is lower: -4.32% for the first, -1.63% for the second.

Compared with `COCCN1C[C@H]2CN(C(=O)c3ccno3)CCN2C1=O`, `Cn1cc(C2CCCN2C(=O)COCCc2ccccc2)cn1` (stereo unspecified) is lower in cytotoxicity at 70.5 h: -6.26% for the first, -8.67% for the second.

Compared with `O=C(c1cccc(C(F)(F)F)c1)N1CC(=O)N(C2CCC2)CC(O)C1` (stereo unspecified), `CC(C)N1CC(C(=O)N2CCC(Oc3ccccc3Cl)CC2)CC1=O` (stereo unspecified) is higher in cytotoxicity at 70.5 h: -7.16% for the first, -0.961% for the second.

First: Cc1cnn(CC2CN(CC(=O)NCc3ccc(C)s3)CCO2)c1 (stereo unspecified)
Second: Cc1ccc(-c2ncc(C(=O)NCCNc3ncccn3)s2)c(C)c1
The cytotoxicity at 70.5 h of the first is lower: -13.6% for the first, 3.03% for the second.

Compared with `Cc1nc(C)n(CC2CCCCN2Cc2nnc(C3CC3)o2)n1` (stereo unspecified), `COc1ccccc1OCCN1CCCCC1Cn1cncn1` (stereo unspecified) is higher in cytotoxicity at 70.5 h: 0.151% for the first, 23.7% for the second.

Compared with `c1cnc(N2CCOCC3(CN(Cc4cc[nH]n4)CCO3)C2)nc1` (stereo unspecified), `c1ccc2c(c1)CC(Cc1cc(N3CCCC3)cnn1)CCO2` (stereo unspecified) is lower in cytotoxicity at 70.5 h: 7.31% for the first, 2.31% for the second.

First: COc1nc2c(cc1C(=O)N1CCCC1c1ccccn1)CCC2 (stereo unspecified)
Second: Cc1cc(C(=O)N2CCc3ncc(CN4CCCC4)n3CC2)no1
The cytotoxicity at 70.5 h of the first is higher: 1.54% for the first, -11% for the second.

Compared with `CC(C)(CNC(=O)C(C)(C)Oc1ccc2c(c1)CCCC2=O)C(N)=O`, `COCc1ccc(C(=O)NS(=O)(=O)c2ccc3c(c2)CCC(=O)N3)cc1` is higher in cytotoxicity at 70.5 h: 0.471% for the first, 17.1% for the second.

Compared with `CCN1CCN(c2ccc(F)cc2C(C)NCc2ccnn2C)CC1` (stereo unspecified), `CC(C)N1CCCN(c2nc(-c3cccnc3)nc3c2cnn3C)CC1` is higher in cytotoxicity at 70.5 h: -1.9% for the first, 36.6% for the second.

Compared with `O=C(NCc1ccoc1)Nc1ccc(CN2CCOC2=O)cc1`, `C[S+]([O-])c1ccc(NC(=O)CC2=CCCCC2)cc1` (stereo unspecified) is lower in cytotoxicity at 70.5 h: 19% for the first, -3.55% for the second.

Going from `N#CC1(NC(=O)c2ccc(-c3nc(C4CC4)n[nH]3)cc2)CCC1` to `O=C(NC1CCN(C2CC2)CC1)c1cc(Cl)ccc1-n1cnnn1`, the cytotoxicity at 70.5 h rises from -16.7% to 8.23%.

First: CSCCC(NC(N)=O)C(=O)N1CCC(Cc2ccccc2)CC1 (stereo unspecified)
Second: O=C1NCCCC[C@@H]1NC(=O)C1(N2CCCCC2)Cc2ccccc2C1
The cytotoxicity at 70.5 h of the first is higher: -3.12% for the first, -4.27% for the second.

Going from `NC(=O)CSc1nnc2n1N=CN(c1ccccc1F)C2` to `OC(CNCCn1cccn1)COc1ccc(F)cc1` (stereo unspecified), the cytotoxicity at 70.5 h rises from -6.75% to 5.18%.

Compared with `O=C(c1ccc(-n2ccnc2)cc1)N1CCCC1`, `Cn1cccc1C(O)CNC(=O)c1ccc2nsnc2c1` (stereo unspecified) is lower in cytotoxicity at 70.5 h: 34.6% for the first, -14.5% for the second.

Going from `CNc1ncc(CN(C)Cc2cc(O)c3cc(F)ccc3n2)cn1` to `Cc1ccc(OCC(O)Cn2ncc3cnn(C)c(=O)c32)cc1` (stereo unspecified), the cytotoxicity at 70.5 h rises from -8.18% to -6.88%.

Compared with `CC(C)n1cnnc1CN(C)CC1CCCNC1` (stereo unspecified), `CCc1nnsc1C(=O)NCc1c(C)nn(CCOC)c1C` is lower in cytotoxicity at 70.5 h: -5.56% for the first, -7.41% for the second.

Going from `CC(NC(=O)NCCCn1cncn1)c1ccc(C#N)cc1` (stereo unspecified) to `CSc1c[nH]nc1NS(=O)(=O)c1ccc(C)c(C)c1`, the cytotoxicity at 70.5 h falls from 1.25% to -2.13%.

Compared with `CCc1nnc(S(=O)(=O)Cc2cc(Cl)c3c(c2)OCO3)n1C`, `CN(C(=O)c1ccc2c(c1)nc(N1CC[C@H](O)C1)n2C)C1CCSCC1` is higher in cytotoxicity at 70.5 h: -1.18% for the first, 24.9% for the second.
